The test system of one assay is PC-3. Put plainly: Cytotoxicity against human PC3 cells assessed as reduction in cell viability by MTT assay. (Formazan colour is commonly taken as a measure of viable cells.)
The subject of a further assay is SMMC-7721. Put plainly: Cytotoxicity against human SMMC7721 cells assessed as reduction in cell viability by MTT assay.
For the next assay, the system named is MCF7. As to the kind of experiment: Cytotoxicity against human MCF7 cells assessed as reduction in cell viability by MTT assay.

SMILES strings stand for the structures. Bounds are passed on as bounds.

In the case of `C=C(C)C1CCC2(C)Oc3cc(O)cc(CCc4ccccc4)c3C1C2O` (racemic), the IC50 (commonly the midpoint of a concentration-inhibition curve) is above 40 µM with PC-3, above 40 µM with SMMC-7721 and 38.2 µM in the assay with MCF7.

As for `CC12CCC3C1C(c1c(CCc4ccccc4)cc(O)cc1O2)C3(C)C` (centres undefined), the results for the IC50 in the assay with PC-3, in the assay with SMMC-7721 and with MCF7 were 19.6 µM, 14.5 µM and 14 µM, respectively.

`CC12CCc3cc(CCc4ccccc4)cc(O)c3C1C2` (racemic): the concentration for half-maximal inhibition (IC50) was above 40 µM in the assay with PC-3, 34.2 µM in the assay on SMMC-7721 and 24.7 µM in the assay on MCF7.

These data come from ChEMBL document CHEMBL4130580, “Bibenzyl-Based Meroterpenoid Enantiomers from the Chinese Liverwort Radula sumatrana” (J Nat Prod, 2017).
